According to PMC6656724 (Communications Biology, 2019):
Like-named read-outs stand apart in the source and are kept apart here.

Experiments:
[1] = molecular target: T1, Pseudomonas fluorescens KMO (PfKMO) (Pseudomonas fluorescens, UniProt Q84HF5, C252S/C461S); assay: biochemical
T1 construct: made in house; host or cells: E. coli BL21 (DE3)
In short: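 NADPH consumption followed at 340 nm, initial rates from linear fits, triplicate. IC50 from % inhibition vs inhibitor concentration fitted to the Morrison equation.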

Homo sapiens KMO (HsKMO) = molecular target: T2, Homo sapiens KMO (HsKMO) (Homo sapiens, UniProt O15229); assay: KMO inhibition assay, NADPH oxidation at 340 nm (HsKMO); format: biochemical
T2 construct: GST; made in house

in vitro = in vitro ADME, canine; conditions: dog; for Papp A→B at 1 h, 10 µM / Papp B→A at 1 h, 10 µM / recovery at 1 h, 10 µM: MDCK; for efflux ratio at 1 h, 10 µM: pH 7.4, wild type MDCK, Papp B>A / Papp A>B
Method: (§1) internal standard at each timepoint. […]
(§2) including an analytical internal standard.
(§3) Apparent permeability (Papp) values were determined from the relationship: […]
(§4) Where V is the volume of each Transwell compartment (apical 125 µL, basolateral 600 µL), and concentrations are the relative MS responses for compound (normalized to internal standard) in the donor chamber before incubation and acceptor chamber at the end of the incubation. Area = area of cells exposed for drug transfer (0.33 cm 2).
(§5) Efflux ratios (Papp B>A / Papp A>B) were calculated for each compound from the […]
(§6) MDR1-MDCK cell line has been engineered to overexpress the efflux transporter, MDR1 (P-glycoprotein), and a finding of good permeability B>A, but poor […]
(§7) order to confirm the involvement of MDR1 in any efflux seen, an “ef fective efflux ratio” (EER) was calculated by comparing compound efflux ratios (ER) in the two cell types, i.e. EER = ER (MDR1-MDCK)/ ER (wild-type MDCK). This ratio illustrates the effect of the over-expressed MDR1 normalised for the background movement of compound through the wild-type cells.
(§8) Lucifer Yellow (LY) was added to the apical buffer in all wells to assess viability of the cell layer. As LY cannot freely permeate lipophilic barriers, a high degree of LY […]
(§9) validity of other wells on the plate.
(§10) Compound recovery from the wells was determined from MS responses (normalized to internal standard) in donor and acceptor chambers at the end of incubation compared to response in the donor chamber pre-incubation.

MDR1 (P-glycoprotein) = assay: in vitro; format: in vitro ADME, canine; conditions: dog; for efflux ratio at 1 h, 10 µM: pH 7.4, MDR1 MDCK, Papp B>A / Papp A>B
Method: as §1, §2, §3, §4, §5, §6, §7, §8, §9, §10

[2] = Stability in mouse hepatic microsomes; conditions: for half-life at 1 µM: mouse, pooled liver microsomes
Method: 3.6.3 Compound stability in mouse hepatic microsomes and rat hepatocytes
A microsomal stability assay was performed as described in the BioFocus Standard
Operating Procedure ADME-SOP-83, using pooled hepatic mouse
Test and control compounds (midazolam,
dextromethorphan), were prepared in DMSO and incubated at an initial concentration
in the presence of the cofactor, NADPH (1 mM). Aliquots were removed at 0, 5, 10,
20 and 40 minutes for termination of reactions and compound extraction with ACN
containing an analytical internal standard. Samples were centrifuged and the
supernatant fractions analysed for parent compound by mass spectrometry (LC-
MS/MS). The amount of compound remaining (expressed as %) was determined from
the MS response in each sample relative to that in the T = 0 samples (normalised for
internal standard). Ln plots of the % remaining were used to determine the half-life
the slope of the Ln % remaining vs time curve. The in vitro intrinsic clearance Clint

[3] = pH 7.4, Papp A>B n=1, wild type MDCK
[4] = pH 7.4, Papp A>B n=2, wild type MDCK
[5] = pH 7.4, Papp B>A n=1, wild type MDCK
[6] = pH 7.4, Papp B>A n=2, wild type MDCK
[7] = pH 7.4, wild type MDCK, read-out: Papp A>B Mean
[8] = pH 7.4, wild type MDCK, read-out: Papp B>A Mean
[9] = pH 7.4, wild type MDCK, read-out: Recovery A>B Mean
[10] = pH 7.4, wild type MDCK, read-out: Recovery A>B n=1
[11] = pH 7.4, wild type MDCK, read-out: Recovery A>B n=2
[12] = pH 7.4, wild type MDCK, read-out: Recovery B>A Mean
[13] = pH 7.4, wild type MDCK, read-out: Recovery B>A n=1
[14] = pH 7.4, wild type MDCK, read-out: Recovery B>A n=2
[15] = MDCK-MDR1, pH 7.4, MDR1 MDCK, read-out: Papp A>B Mean
[16] = MDCK-MDR1, pH 7.4, MDR1 MDCK, read-out: Papp B>A Mean
[17] = MDCK-MDR1, pH 7.4, MDR1 MDCK, read-out: Recovery A>B Mean
[18] = MDCK-MDR1, pH 7.4, MDR1 MDCK, read-out: Recovery A>B n=1
[19] = MDCK-MDR1, pH 7.4, MDR1 MDCK, read-out: Recovery A>B n=2
[20] = MDCK-MDR1, pH 7.4, MDR1 MDCK, read-out: Recovery B>A Mean
[21] = MDCK-MDR1, pH 7.4, MDR1 MDCK, read-out: Recovery B>A n=1
[22] = MDCK-MDR1, pH 7.4, MDR1 MDCK, read-out: Recovery B>A n=2
[23] = MDCK-MDR1, pH 7.4, Papp A>B n=1, MDR1 MDCK
[24] = MDCK-MDR1, pH 7.4, Papp A>B n=2, MDR1 MDCK
[25] = MDCK-MDR1, pH 7.4, Papp B>A n=1, MDR1 MDCK
[26] = MDCK-MDR1, pH 7.4, Papp B>A n=2, MDR1 MDCK
[27] = Half-life Mean, mouse hepatic microsomes
[28] = Half-life n=1, mouse hepatic microsomes
[29] = Half-life n=2, mouse hepatic microsomes

T2 sequence (O15229 whole entry): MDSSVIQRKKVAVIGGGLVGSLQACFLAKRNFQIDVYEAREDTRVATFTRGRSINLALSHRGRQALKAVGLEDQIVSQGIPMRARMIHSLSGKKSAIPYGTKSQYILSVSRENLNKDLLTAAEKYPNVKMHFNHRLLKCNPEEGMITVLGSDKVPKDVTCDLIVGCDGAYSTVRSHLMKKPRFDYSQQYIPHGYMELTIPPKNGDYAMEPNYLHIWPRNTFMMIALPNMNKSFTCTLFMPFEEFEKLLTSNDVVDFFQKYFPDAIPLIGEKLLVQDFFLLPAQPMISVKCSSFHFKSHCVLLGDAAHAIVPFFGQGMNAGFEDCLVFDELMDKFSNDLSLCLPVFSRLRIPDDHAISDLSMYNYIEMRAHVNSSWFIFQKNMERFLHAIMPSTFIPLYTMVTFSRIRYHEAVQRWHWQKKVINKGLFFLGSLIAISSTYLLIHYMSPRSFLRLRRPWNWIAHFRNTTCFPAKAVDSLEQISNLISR
T1 sequence (Q84HF5 whole entry C252S/C461S): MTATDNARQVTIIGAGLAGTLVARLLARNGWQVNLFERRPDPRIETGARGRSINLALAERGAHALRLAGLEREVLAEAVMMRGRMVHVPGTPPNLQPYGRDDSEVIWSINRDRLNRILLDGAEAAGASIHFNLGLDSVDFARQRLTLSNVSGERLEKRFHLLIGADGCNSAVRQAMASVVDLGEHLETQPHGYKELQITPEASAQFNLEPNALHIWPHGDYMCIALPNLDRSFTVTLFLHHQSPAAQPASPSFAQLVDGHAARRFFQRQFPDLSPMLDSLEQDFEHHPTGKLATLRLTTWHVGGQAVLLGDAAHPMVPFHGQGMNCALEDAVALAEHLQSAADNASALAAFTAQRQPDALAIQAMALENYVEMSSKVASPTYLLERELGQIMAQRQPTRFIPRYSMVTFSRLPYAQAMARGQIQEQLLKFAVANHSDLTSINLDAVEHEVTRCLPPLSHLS

Structure (SMILES)	IC50 [1] [µM]	IC50 (Homo sapiens KMO (HsKMO)) [µM]	Papp A→B at 1 h, 10 µM (in vitro; [3]) [×10⁻⁶ cm/s]	Papp A→B at 1 h, 10 µM (in vitro; [4]) [×10⁻⁶ cm/s]	Papp B→A at 1 h, 10 µM (in vitro; [5]) [×10⁻⁶ cm/s]	Papp B→A at 1 h, 10 µM (in vitro; [6]) [×10⁻⁶ cm/s]	Papp A→B at 1 h, 10 µM (in vitro; [7]) [×10⁻⁶ cm/s]	Papp B→A at 1 h, 10 µM (in vitro; [8]) [×10⁻⁶ cm/s]	recovery at 1 h, 10 µM (in vitro; [9]) [%]	recovery at 1 h, 10 µM (in vitro; [10]) [%]	recovery at 1 h, 10 µM (in vitro; [11]) [%]	recovery at 1 h, 10 µM (in vitro; [12]) [%]	recovery at 1 h, 10 µM (in vitro; [13]) [%]	recovery at 1 h, 10 µM (in vitro; [14]) [%]	Papp A→B at 1 h, 10 µM (MDR1 (P-glycoprotein); [15]) [×10⁻⁶ cm/s]	Papp B→A at 1 h, 10 µM (MDR1 (P-glycoprotein); [16]) [×10⁻⁶ cm/s]	recovery at 1 h, 10 µM (MDR1 (P-glycoprotein); [17]) [%]	recovery at 1 h, 10 µM (MDR1 (P-glycoprotein); [18]) [%]	recovery at 1 h, 10 µM (MDR1 (P-glycoprotein); [19]) [%]	recovery at 1 h, 10 µM (MDR1 (P-glycoprotein); [20]) [%]	further results
COC(=O)CN1C(=O)COc2cc(C)c(Cl)c(C)c21 [1a]	> 500	~500	–	–	–	–	–	–	–	–	–	–	–	–	–	–	–	–	–	–	–
CCOC(=O)CN1C(=O)COc2cc(C)c(Cl)c(C)c21 [1b]	> 300	> 500	–	–	–	–	–	–	–	–	–	–	–	–	–	–	–	–	–	–	–
Cc1cc2c(c(C)c1Cl)N(CC(=O)OC(C)C)C(=O)CO2 [1c]	> 300	> 300	–	–	–	–	–	–	–	–	–	–	–	–	–	–	–	–	–	–	–
Cc1cc2c(c(C)c1Cl)N(Cc1nn[nH]n1)C(=O)CO2 [1h, 6-chloro-5,7-dimethyl-4-(2H-tetrazol-5-ylmethyl)-1,4-benzoxazin-3-one]	17 ± 0.43	1.28 ± 0.08	–	–	–	–	–	–	–	–	–	–	–	–	–	–	–	–	–	–	–
Cc1cc2c(c(C)c1Cl)N(CC(=O)O)C(=O)CO2 [compound 1, (6-chloro-5,7-dimethyl-3-oxo-2,3-dihydro-4H-1,4-benzoxazin-4-yl) acetic acid]	–	–	16	11	2.6	2.3	13.5	2.45	93.5	100	87	108	108	109	16	2.1	99	107	91	84	recovery at 1 h, 10 µM (MDR1 (P-glycoprotein); [21]): 62%; recovery at 1 h, 10 µM (MDR1 (P-glycoprotein); [22]): 106%; Papp A→B at 1 h, 10 µM (MDR1 (P-glycoprotein); [23]): 18 ×10⁻⁶ cm/s; Papp A→B at 1 h, 10 µM (MDR1 (P-glycoprotein); [24]): 14 ×10⁻⁶ cm/s; Papp B→A at 1 h, 10 µM (MDR1 (P-glycoprotein); [25]): 1.8 ×10⁻⁶ cm/s; Papp B→A at 1 h, 10 µM (MDR1 (P-glycoprotein); [26]): 2.4 ×10⁻⁶ cm/s; Mean intrinsic clearance ([2]; mouse hepatic microsomes): < 28 µL/min/mg microsome protein; half-life at 1 µM [2, 27]: > 1.67 h; half-life at 1 µM [2, 28]: > 1.67 h; half-life at 1 µM [2, 29]: > 1.67 h
Oc1ccc(-c2csc3nc(-c4ccccc4)nn23)c(O)c1 [compound 3, 4-(2-phenyl[1,2,4]triazolo[5,1-b][1,3]thiazol-6-yl)benzene-1,3-diol]	74.7 ± 8	2.3	2.7	3.9	2.7	3.2	3.3	2.95	15	15	15	49	50	48	3.25	4.95	18	15	21	49.5	efflux ratio at 1 h, 10 µM (in vitro): 0.89; recovery at 1 h, 10 µM (MDR1 (P-glycoprotein); [21]): 51%; recovery at 1 h, 10 µM (MDR1 (P-glycoprotein); [22]): 48%; Papp A→B at 1 h, 10 µM (MDR1 (P-glycoprotein); [23]): 2.9 ×10⁻⁶ cm/s; Papp A→B at 1 h, 10 µM (MDR1 (P-glycoprotein); [24]): 3.6 ×10⁻⁶ cm/s; Papp B→A at 1 h, 10 µM (MDR1 (P-glycoprotein); [25]): 4.9 ×10⁻⁶ cm/s; Papp B→A at 1 h, 10 µM (MDR1 (P-glycoprotein); [26]): 5 ×10⁻⁶ cm/s; efflux ratio at 1 h, 10 µM (MDR1 (P-glycoprotein)): 1.5; Mean intrinsic clearance ([2]; mouse hepatic microsomes): 49 µL/min/mg microsome protein; half-life at 1 µM [2, 27]: 0.983 h; half-life at 1 µM [2, 28]: 0.8 h; half-life at 1 µM [2, 29]: 1.15 h
Cn1c(C(=O)N[C@@H](C(=O)O)c2ccccc2)cc2cc(F)ccc21 [compound 5, (R)-2-(5-fluoro-1-methyl-1H-indole-2-carboxamido)-2-phenylacetic acid]	123 ± 8	55.3	2.6	2.1	1.6	1.4	2.35	1.5	81	81	81	83.5	86	81	2.6	2.25	83	87	79	81.5	efflux ratio at 1 h, 10 µM (in vitro): 0.62; recovery at 1 h, 10 µM (MDR1 (P-glycoprotein); [21]): 80%; recovery at 1 h, 10 µM (MDR1 (P-glycoprotein); [22]): 83%; Papp A→B at 1 h, 10 µM (MDR1 (P-glycoprotein); [23]): 2.8 ×10⁻⁶ cm/s; Papp A→B at 1 h, 10 µM (MDR1 (P-glycoprotein); [24]): 2.4 ×10⁻⁶ cm/s; Papp B→A at 1 h, 10 µM (MDR1 (P-glycoprotein); [25]): 2.4 ×10⁻⁶ cm/s; Papp B→A at 1 h, 10 µM (MDR1 (P-glycoprotein); [26]): 2.1 ×10⁻⁶ cm/s; efflux ratio at 1 h, 10 µM (MDR1 (P-glycoprotein)): 0.88; Mean intrinsic clearance ([2]; mouse hepatic microsomes): < 28 µL/min/mg microsome protein; half-life at 1 µM [2, 27]: > 1.67 h; half-life at 1 µM [2, 28]: > 1.67 h; half-life at 1 µM [2, 29]: > 1.67 h
CC(CSc1ccc(Cl)cc1)C(=O)O (stereo not drawn) [compound 6, 3-[(4-chlorophenyl)thio]-2-methylpropanoic acid]	85.6 ± 4.4	68.6	33	41	51	50	37	50.5	66	57	75	93.5	98	89	50.5	41.5	82	68	96	80	efflux ratio at 1 h, 10 µM (in vitro): 1.36; recovery at 1 h, 10 µM (MDR1 (P-glycoprotein); [21]): 93%; recovery at 1 h, 10 µM (MDR1 (P-glycoprotein); [22]): 67%; Papp A→B at 1 h, 10 µM (MDR1 (P-glycoprotein); [23]): 40 ×10⁻⁶ cm/s; Papp A→B at 1 h, 10 µM (MDR1 (P-glycoprotein); [24]): 61 ×10⁻⁶ cm/s; Papp B→A at 1 h, 10 µM (MDR1 (P-glycoprotein); [25]): 51 ×10⁻⁶ cm/s; Papp B→A at 1 h, 10 µM (MDR1 (P-glycoprotein); [26]): 32 ×10⁻⁶ cm/s; efflux ratio at 1 h, 10 µM (MDR1 (P-glycoprotein)): 0.81; Mean intrinsic clearance ([2]; mouse hepatic microsomes): < 28 µL/min/mg microsome protein; half-life at 1 µM [2, 27]: > 1.67 h; half-life at 1 µM [2, 28]: > 1.67 h; half-life at 1 µM [2, 29]: > 1.67 h
